Assay results taken from patent publication US5622948A, “Pyrrole pyridazine and pyridazinone anti-inflammatory agents” (Syntex (U.S.A.) Inc., priority 1994, dated 1997).

Assays:
[1] = biological target: T1, COX II (Homo sapiens, UniProt P35354); assay: radiometric assay, COX II inhibition (human recombinant, baculovirus expressed, partially purified); type: biochemical; set-up: A 1.8 Kb DNA fragment containing the coding region of human COX II was generated by PCR; made in house; host or cells: Sf9 insect cells, baculovirus; conditions: radiometric assay, human recombinant baculovirus expressed enzyme; read-out: COX II IC50 (Table 2)
T1 sequence (P35354 18-604): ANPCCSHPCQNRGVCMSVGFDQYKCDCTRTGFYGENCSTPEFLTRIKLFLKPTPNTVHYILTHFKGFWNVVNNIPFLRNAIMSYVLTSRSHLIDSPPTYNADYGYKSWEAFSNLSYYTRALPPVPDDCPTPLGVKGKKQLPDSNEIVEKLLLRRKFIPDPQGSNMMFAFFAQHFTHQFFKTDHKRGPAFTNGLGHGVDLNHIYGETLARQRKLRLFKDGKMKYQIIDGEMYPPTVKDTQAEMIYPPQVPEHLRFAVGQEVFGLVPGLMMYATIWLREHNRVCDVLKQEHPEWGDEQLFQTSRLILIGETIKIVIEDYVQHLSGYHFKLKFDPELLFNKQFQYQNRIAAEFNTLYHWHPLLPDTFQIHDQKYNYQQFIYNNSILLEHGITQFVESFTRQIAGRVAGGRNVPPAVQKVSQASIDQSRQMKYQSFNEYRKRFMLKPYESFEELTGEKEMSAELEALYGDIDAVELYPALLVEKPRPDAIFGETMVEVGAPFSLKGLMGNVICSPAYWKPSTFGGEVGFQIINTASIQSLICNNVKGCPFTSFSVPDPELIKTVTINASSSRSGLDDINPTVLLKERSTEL
Description: (§1) Human prostaglandin G/H synthase I and II ("COX I" and "COX II") were expressed in the baculovirus expression system and purified to high levels.
(§2) As described above, human recombinant COX I and COX II were cloned and expressed in a baculovirus system. Partially purified COX I and COX II enzymes were used for screening compounds for their ability to inhibit COX I and COX II activity, as described below.
(§3) Compound (16), in 2 μl DMSO, and control samples (carrier vehicles only) were mixed with COX I or COX II samples (e.g. fractions from the chromatography columns) in polypropylene tubes and preincubated with 2 mM phenol for 5 minutes and then with 1 μM hematin for an additional 5 minutes. The 150 μl reaction mixture consisted of 50 mM Tris --HCl, pH 7.9, 2 mM EDTA, 10% glycerol, 200 μM phenol, 1 μM hematin, 1-25 μl sample and 20 μM 1-[^14 C] arachidonate (80.000-100.000 cpm/tube). After 45 seconds at room temperature, the reaction was terminated by adding 200 μl of 2N HCl and 750 μl water. An aliquot (950 μl) of the reaction mixture was loaded onto a 1 ml C~ Sep-Pak (J. T. Baker, Phillipsburg, N.J.) which had been previously washed with 2-3 ml methanol and equilibrated with 5-6 ml distilled water. Oxygenated products were quantitatively eluted with 3 ml of acetonitrile, H2 O and acetic acid (50:50:0.1, v/v) and the radioactivity in the eluate determined in a scintillation counter.
(§4) Human recombinant 10 min incubation with Compound (16)
(§5) baculovirus 45 sec incubation with 20 μM AA
(§6) partially purified Separation of radioactive products

[2] = biological target: COX I (Homo sapiens, UniProt P23219); assay: radiometric assay, COX I inhibition (human recombinant, baculovirus expressed, partially purified); type: biochemical; set-up: A 2 Kb fragment containing the coding region of COX I; made in house; host or cells: Sf9 insect cells, baculovirus (cDNA from Oxford Biomedical Research); conditions: radiometric assay, human recombinant baculovirus expressed enzyme; read-out: COX I IC50 (Table 2)
Sequence of COX I (P23219 24-599): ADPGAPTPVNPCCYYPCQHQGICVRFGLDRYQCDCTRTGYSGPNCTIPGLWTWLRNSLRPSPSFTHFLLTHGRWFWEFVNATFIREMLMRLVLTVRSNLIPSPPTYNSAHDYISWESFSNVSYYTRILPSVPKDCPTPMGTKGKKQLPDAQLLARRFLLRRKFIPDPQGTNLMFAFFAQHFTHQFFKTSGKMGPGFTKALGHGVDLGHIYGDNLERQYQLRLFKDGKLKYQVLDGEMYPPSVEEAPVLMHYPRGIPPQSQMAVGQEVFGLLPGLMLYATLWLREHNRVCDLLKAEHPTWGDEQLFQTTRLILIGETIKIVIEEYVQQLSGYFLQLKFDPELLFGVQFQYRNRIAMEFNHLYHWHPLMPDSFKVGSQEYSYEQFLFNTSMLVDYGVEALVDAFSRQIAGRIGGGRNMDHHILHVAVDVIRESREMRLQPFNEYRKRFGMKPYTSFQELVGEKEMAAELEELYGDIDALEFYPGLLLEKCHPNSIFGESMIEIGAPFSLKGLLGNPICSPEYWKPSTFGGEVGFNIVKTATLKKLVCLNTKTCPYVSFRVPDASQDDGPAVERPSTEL
Description: as §1, §2, §3, §4, §5, §6

IC50 [1]	IC50 [2]	SMILES
0.67 µM	57 µM	C=CCn1nc(Cc2cc(C)c(C(=O)c3ccc(Cl)cc3)n2C)ccc1=O [Compound 127, 2-allyl-6-[5-(4-chloro-benzoyl)-1,4-dimethyl-1H-pyrrol-2-ylmethyl]-2H-pyridazin-3one]
< 0.03 µM	3.5 µM	Cc1cc(Cc2ccc(=O)n(CCF)n2)n(C)c1C(=O)c1ccc(Cl)cc1 [Compound 123, 6-[5-(4-chloro-benzoyl)-1,4-dimethyl-1H-pyrrol-2-ylmethyl]-2-(2-fluoroethyl)-2H-pyridazin-3-one]
0.5 µM	40 µM	Cc1ccc(C(=O)c2c(C)cc(Cc3ccc(=O)[nH]n3)n2C)cc1 [Compound 30, 6-[1,4-dimethyl-5-(4-methyl-benzoyl)-1H-pyrrol-2-ylmethyl]-2H-pyridazin-3-one]
4.6 µM	700 µM	Cn1c(Cc2ccc(=O)[nH]n2)ccc1C(=O)c1ccc(Br)cc1 [Compound 57, 6-[5-(4-bromo-benzoyl)-1-methyl-1H-pyrrol-2-ylmethyl]-2H-pyridazin-3-one]
0.2 µM	35 µM	COc1ccc(C(=O)c2c(C)cc(Cc3ccc(=O)[nH]n3)n2C)cc1 [Compound 31, 6-[1,4-dimethyl-5-(4-methoxy-benzoyl)-1-H-pyrrol-2-ylmethyl]-2H-pyridazin-3-one]
0.54 µM	94 µM	COCCn1nc(Cc2cc(C)c(C(=O)c3ccc(Cl)cc3)n2C)ccc1=O [Compound 124, 6-[5-(4-chloro-benzoyl)-1,4,-dimethyl-1H-pyrrol-2-ylmethyl]-2-(2-methoxy-ethyl)-2H-pyridazin-3-one]
3.06 µM	829 µM	Cc1cc(Cc2ccc(=O)n(CCNS(C)(=O)=O)n2)n(C)c1C(=O)c1ccc(Cl)cc1 [Compound 136, N-(2-{3-[5-(4-chloro-benzoyl)-1,4,-dimethyl-1H-pyrrol-2-ylmethyl]-6-oxo-6H-pyridazin-1-yl}-ethyl)-methanesulfonamide]
0.063 µM	0.074 µM	Cc1cc(Cc2ccc(=O)n(CC#N)n2)n(C)c1C(=O)c1ccc(Cl)cc1 [Compound 122, 6-[5-(4-chloro-benzoyl)-1,4,-dimethyl-1H-pyrrol-2-ylmethyl]-2-(cyano-methyl)-2H-pyridazin-3-one]
0.66 µM	82 µM	CC(=O)n1nc(Cc2cc(C)c(C(=O)c3ccc(Cl)cc3)n2C)ccc1=O [Compound 114, 2-acetyl-6-[5-(4-chloro-benzoyl)-1,4,-dimethyl-1H-pyrrol-2-ylmethyl]-2H-pyridazin-3-one]
0.125 µM	4.9 µM	Cc1cc(Cc2cc(C)c(=O)[nH]n2)n(C)c1C(=O)c1ccc(Cl)cc1 [Compound 141, 6-[5-(4-chloro-benzoyl)-1,4-dimethyl-1H-pyrrol-2-ylmethyl]-4-methyl-2H-pyridazin-3-one]
0.59 µM	1 µM	Cc1cc(Cc2ccc(=O)[nH]n2)n(C)c1C(=O)c1cccs1 [Compound 144, 6-[1,4-dimethyl-5-(thienyl-2-carbonyl)-1H-pyrrol-2-ylmethyl]-2H-pyridazin-3-one]
0.63 µM	> 100 µM	Cc1cc(C(C#N)c2ccc(=O)[nH]n2)n(C)c1C(=O)c1ccc(Cl)cc1 (stereo not drawn) [Compound 9, [5-(4-chloro-benzoyl)-1,4-dimethyl-1H-pyrrol-2-yl]-(6-oxo-1,6-dihydro-pyridazin-3-yl)acetonitrile]
1.6 µM	< 10 µM	CNC(=O)Cn1nc(Cc2cc(C)c(C(=O)c3ccc(Cl)cc3)n2C)ccc1=O [Compound 125, 2-{3-[5-(4-chloro-benzoyl)-1,4,-dimethyl-1H-pyrrol-2-ylmethyl]-6-oxo-6H-pyridazin-1-yl}--N-methyl acetamide]
0.8 µM	8.9 µM	Cc1cc(Cc2ccc(=O)n(CC(N)=O)n2)n(C)c1C(=O)c1ccc(Cl)cc1 [Compound 120, 2-{3-[5-(4-chloro-benzoyl)-1,4,-dimethyl-1H-pyrrol-2-ylmethyl]-6-oxo-6H-pyridazin-1-yl}-acetamide]
0.1 µM	86 µM	Cc1cc(Cc2ccc(=O)[nH]n2)n(C)c1C(=O)c1ccc(Br)cc1 [Compound 35, 6-[5-(4-bromo-benzoyl)-1,4-dimethyl-1H-pyrrol-2-ylmethyl]-2H-pyridazin-3-one]
0.44 µM	> 300 µM	Cn1c(Cc2ccc(=O)[nH]n2)cc(Cl)c1C(=O)c1ccc(Cl)cc1 [Compound 81, 6-[4-chloro-5-(4-chloro-benzoyl)-1-methyl-1H-pyrrol-2-ylmethyl]-2H-pyridazin-3-one]
4.16 µM	67 µM	Cc1cc(Cc2ccc(=O)[nH]n2)n(C)c1C(=O)c1ccc(F)cc1 [Compound 142, 6-[1,4-dimethyl-5-(4-fluoro-benzoyl)-1H-pyrrol-2-ylmethyl]-2H-pyridazin-3-one]
0.91 µM	85 µM	Cc1cc(Cc2ccc(=O)n(CCC#N)n2)n(C)c1C(=O)c1ccc(Cl)cc1 [Compound 145, 6-[5-(4-chloro-benzoyl)-1,4,-dimethyl-1H-pyrrol-2-ylmethyl]-2-(2-cyano-ethyl)-2H-pyridazin-3-one]
1.5 µM	300 µM	Cc1ccc(C(=O)c2ccc(Cc3ccc(=O)[nH]n3)n2C)cc1 [Compound 100, 6-[1-methyl-5-(4-methyl-benzoyl)-1H-pyrrol-2-ylmethyl]-2H-pyridazin-3-one]
1.8 µM	277 µM	Cc1c(Br)c(Cc2ccc(=O)[nH]n2)n(C)c1C(=O)c1ccc(Cl)cc1 [Compound 25, 6-[3-bromo-5-(4-chloro-benzoyl)-1,4-dimethyl-1H-pyrrol-2-ylmethyl]-2H-pyridazin-3-one]
0.4 µM	38 µM	CCc1ccc(C(=O)c2c(C)cc(Cc3ccc(=O)[nH]n3)n2C)cc1 [Compound 36, 6-[1,4-dimethyl-5-(4-ethyl-benzoyl)-1H-pyrrol-2-ylmethyl]-2H-pyridazin-3-one]
7 µM	140 µM	Cn1c(Cc2ccc(=O)[nH]n2)ccc1C(=O)c1cccs1 [Compound 62, 6-[1-methyl-5-(thienyl-2-carbonyl)-1H-pyrrol-2-ylmethyl]-2H-pyridazin-3-one]
2.3 µM	21 µM	CSc1cc(Cc2ccc(=O)[nH]n2)n(C)c1C(=O)c1ccc(C)cc1 [Compound 107, 6-(1-methyl-5-(4-methyl-benzoyl)-4-methylthio-1H-pyrrol-2-ylmethyl)-2H-pyridazin-3-one]
0.54 µM	> 100 µM	Cc1cc(Cc2ccc(=O)n(CO)n2)n(C)c1C(=O)c1ccc(Cl)cc1 [Compound 153, 6-[5-(4-chloro-benzoyl)-1,4,-dimethyl-1H-pyrrol-2-ylmethyl]-2-(hydroxy-methyl)-2H-pyridazin-3-one]
0.72 µM	82 µM	Cn1c(Cc2ccc(=O)[nH]n2)ccc1C(=O)c1ccc(C2CC2)cc1 [Compound 42, 6-[5-(4-cyclopropyl-benzoyl)-1-methyl-1H-pyrrol-2-ylmethyl]-2H-pyridazin-3-one]
1.63 µM	24.4 µM	CC[C@H](C)NC(=O)Cn1nc(Cc2cc(C)c(C(=O)c3ccc(Cl)cc3)n2C)ccc1=O [Compound 157, S--N-sec-butyl-2-{3-[5-(4-chloro-benzoyl)-1,4,-dimethyl-1H-pyrrol-2-ylmethyl]-6-oxo-6H-pyridazin-1-yl}-acetamide]
< 0.1 µM	3.8 µM	Cc1cccc(C)c1Cn1nc(Cc2cc(C)c(C(=O)c3ccc(Cl)cc3)n2C)ccc1=O [Compound 151, 6-[5-(4-chloro-benzoyl)-1,4,-dimethyl-1H-pyrrol-2-ylmethyl]-2-(2,6-dimethylbenzyl)-2H-pyridazin-3-one]
